Reference: patent EP0538305B1, “P[…] F[…] RELATED GUANINE DERIVATIVES FOR THE TREATMENT OF THE HIV-1 INFECTIONS” (BEECHAM GROUP PLC, priority 1990, dated 1992)

Target: T1, HIV-1 reverse transcriptase (Human immunodeficiency virus type 1 group M subtype B, UniProt P04585)
T1 construct: equivalent to 2.85nM for an equimolar mixture of p66 and p51 polypeptides; host or cells: E. coli
Experiment: Assay for reverse transcriptase activity (incorporation of radioactive dGMP from [3H]dGTP into Poly (rC). p(dG)12-18)
Format: biochemical, human immunodeficiency virus type 1 (HIV-1)
Settings: for IC50: approximate, from plot of % inhibition against concentration of inhibitor, 1.02µM [3H]dGTP, 65 minutes at 37°C
Procedure: Chemicals [^3H]dGTP (16.3 Ci/mmol) was purchased from Amersham International, Aylesbury, U.K. Template primer Poly (rC). p(dG)12-18 (1:1, rC:dG ratio) and 2',3'-dideoxyguanosine-5-triphosphate (ddGTP) were obtained from Pharmacia Ltd., Milton Keynes, U.K. Penciclovir triphosphate (PCV-TP) was prepared in the laboratories of SmithKline Beecham Pharmaceuticals, Great Burgh, United Kingdom.
Reverse transcriptase Purified, E. coli expressed HIV-1 reverse transcriptase (RT) was supplied by the Protein Biochemistry Department of SmithKline Beecham Pharmaceuticals, Upper Merion, U.S.A. The enzyme was stored and diluted in a buffer containing 50mM Tris-HCl (pH 8.0), 10mM Hepes, 110mM NaCl, 5.7mM DTT, 0.3mM EDTA, 0.06% Triton X-100, 50% glycerol.
Assay for reverse transcriptase activity The reaction mixture for the HIV-1 RT assay contained in a volume of 120µl: 33mM Tris HCl (pH 8.0), 100mM KCl, 3.3mM MgCl2, 3.3mM dithiothreitol, 0.2mM glutathione, 0.33mM EGTA (ethylene glycol-bis-(β-aminoethyl ether) N,N-tetra acetic acid), 0.033% Triton X-100, 1.02µM [^3H]dGTP, 0-12.39µM inhibitors ddGTP, PCV-TP, 0.3 A260 units/ml Poly (rC). p(dG)12-18 and 167ng/ml RT (equivalent to 2.85nM for an equimolar mixture of p66 and p51 polypeptides). The reaction mixtures without RT were prepared in the microwells of a 96-well plate and preincubated at 37°C before the reactions were started by the addition of 20µl of the enzyme solution. The plates were then incubated for 65 minutes at 37°C. The incorporation rate was linear for the uninhibited control reaction over this time period. The reactions were terminated by the addition of 40µl of EDTA solution (0.2M, pH7.0). The individual reaction mixtures were transferred to a DEAE filter mat (1205-405, LKB Wallac, Finland), prewetted with 0.3M NaCl/0.03M Na citrate, using a cell harvester (1295-001, LKB Wallac). The filter mat was washed three times in the NaCl/Na citrate buffer and then once in 95% ethanol. Scintillation fluid (Beta Plate Scint, LKB Wallac) was added to the dried filter, and the reaction mixtures assayed for incorporation of radioactive dGMP in an LKB 1205 Beta Plate Liquid Scintillation Counter.

## Nc1nc2c(ncn2CCC(CO)COP(=O)(O)OP(=O)(O)OP(=O)(O)O)c(=O)[nH]1 (racemic) [PCV-TP, Penciclovir triphosphate]
0.124 µM PCV-TP
  inhibition at 0.124 µM: 4%
0.124 µM PCV-TP, uninhibited control 88892
  Incorporation of dGMP: 85313 c.p.m.
1.24 µM PCV-TP
  inhibition at 1.24 µM: 21.2%
1.24 µM PCV-TP, uninhibited control 88892
  Incorporation of dGMP: 70061 c.p.m.
3.10 µM PCV-TP
  inhibition at 3.1 µM: 41.7%
3.10 µM PCV-TP, uninhibited control 88892
  Incorporation of dGMP: 51866 c.p.m.
6.19 µM PCV-TP
  inhibition at 6.19 µM: 63%
6.19 µM PCV-TP, uninhibited control 88892
  Incorporation of dGMP: 32921 c.p.m.
9.29 µM PCV-TP
  inhibition at 9.29 µM: 70.3%
9.29 µM PCV-TP, uninhibited control 88892
  Incorporation of dGMP: 26436 c.p.m.
12.39 µM PCV-TP
  inhibition at 12.39 µM: 73.2%
12.39 µM PCV-TP, uninhibited control 88892
  Incorporation of dGMP: 23844 c.p.m.
  IC50: 4300 nM

## Nc1nc2c(ncn2[C@H]2CC[C@@H](COP(=O)(O)OP(=O)(O)OP(=O)(O)O)O2)c(=O)[nH]1 [ddGTP, 2',3'-dideoxyguanosine-5-triphosphate, reference compound]
1 nM ddGTP
  inhibition at 0.001 µM: 0%
1 nM ddGTP, uninhibited control 117892
  Incorporation of dGMP: 119726 c.p.m.
10 nM ddGTP
  inhibition at 0.01 µM: 23.7%
10 nM ddGTP, uninhibited control 117892
  Incorporation of dGMP: 89949 c.p.m.
25 nM ddGTP
  inhibition at 0.025 µM: 50.2%
25 nM ddGTP, uninhibited control 117892
  Incorporation of dGMP: 58703 c.p.m.
50 nM ddGTP
  inhibition at 0.05 µM: 70.2%
50 nM ddGTP, uninhibited control 117892
  Incorporation of dGMP: 35091 c.p.m.
75 nM ddGTP
  inhibition at 0.075 µM: 77.8%
75 nM ddGTP, uninhibited control 117892
  Incorporation of dGMP: 26132 c.p.m.
100 nM ddGTP
  inhibition at 0.1 µM: 81.2%
100 nM ddGTP, uninhibited control 117892
  Incorporation of dGMP: 22161 c.p.m.
  IC50: 25 nM
